In US20260306460A1, “COMPOSITION FOR REMOVING AND INHIBITING SENESCENT CELLS, AND USES THEREOF” (LIFECEUTIX CO., LTD., priority 2023, published 2026):

Legend:
[1] = system: naturally aged C57BL6J mice; assay type: in vivo, mouse; settings: mouse, in vivo
senescent A549 cells = test: Viability of senescent A549 cells (CellTiter-Glo), Example 18, Table 15; settings: Homo sapiens, A549, read-out: Survival (%)
Procedure: Senescence-induced cancer cells treated with doxorubicin were treated with the test compound at designated concentrations, and cell viability was measured using the CellTiter-Glo Luminescent Cell Viability Assay (Promega).

senescent cells = test: Viability of senescent cells (CellTiter-Glo), Example 17, Table 13; settings: Homo sapiens, read-out: Survival (%)
Procedure: Cells induced to undergo senescence by doxorubicin treatment were treated with test compound at designated concentrations and measured using the CellTiter-Glo Luminescent Cell Viability Assay (Promega).

senescent human cells = test: Viability of doxorubicin-induced senescent human cells (CellTiter-Glo), Example 11; assay type: cell-based; settings: excessive concentrations (1 or 20 mM)
Procedure: Cells in which senescence was induced by treatment with doxorubicin were treated with the test compound at designated concentrations and measured using the CellTiter-Glo Luminescent Cell Viability Assay (Promega).
After 3 days, cell viability was measured using CellTiter-Glo Luminescent Cell Viability Assay (Promega) or light microscopy.

| Compound | wound/damage healing improvement [1] | other results |
| --- | --- | --- |
| C[C@H]1C(=O)C(C#N)=C[C@@]2(C)c3c(c(-c4ccccc4)nn3-c3ccc(-c4cccc(CO)c4)cc3)CC[C@H]12 [LX-2505] | damage treatment and recovery | – |
| Cc1cc(-c2ccc(-n3nc(-c4ccccc4F)c4c3[C@]3(C)C=C(C#N)C(=O)[C@H](C)[C@H]3CC4)cc2)cnn1 [LX-2506] | damage treatment and recovery | – |
| C[C@@H]1C(=O)C(C#N)=C[C@]2(C)C3=CC(=O)[C@@H]4[C@@H]5CC(C)(C)CC[C@]5(c5nnc(CF)o5)CC[C@@]4(C)[C@]3(C)CC[C@@H]12 [LX-2507] | damage treatment and recovery | – |
| CC1(C)CC[C@]2(c3nc(CO)no3)CC[C@]3(C)[C@H](C(=O)C=C4[C@@]5(C)C=C(C#N)C(=O)C(C)(C)[C@@H]5CC[C@]43C)[C@@H]2C1 [LX-2508] | damage treatment and recovery | – |
| C=CC(=O)NC[C@]12CCC(C)(C)C[C@H]1[C@H]1C(=O)C=C3[C@@]4(C)C=C(C#N)C(=O)C(C)(C)[C@@H]4CC[C@@]3(C)[C@]1(C)CC2 [LX-2509] | damage treatment and recovery | – |
| CCC(=O)NC[C@]12CCC(C)(C)C[C@H]1[C@H]1C(=O)C=C3[C@@]4(C)C=C(C#N)C(=O)C(C)(C)[C@@H]4CC[C@@]3(C)[C@]1(C)CC2 [LX-2510] | damage treatment and recovery | – |
| C[C@@H]1[C@H]2[C@H]3C(=O)C=C4[C@@]5(C)C=C(C#N)C(=O)C(C)(C)[C@@H]5CC[C@@]4(C)[C@]3(C)CC[C@@]2(c2nc(CCO)no2)CC[C@H]1C [LX-2511] | damage treatment and recovery | – |
| C[C@@H]1[C@H]2[C@H]3C(=O)C=C4[C@@]5(C)C=C(C#N)C(=O)C(C)(C)[C@@H]5CC[C@@]4(C)[C@]3(C)CC[C@@]2(CO)CC[C@H]1C [LX-2512] | damage treatment and recovery | – |
| COC(=O)[C@@]1(C)CC[C@]2(C)CC[C@]3(C)[C@H](C(=O)C=C4[C@@]5(C)C=C(C#N)C(=O)C(C)(C)C5CC[C@]43C)[C@@H]2C1 (some centres unmarked) [LX-2513, Soloxolone methyl] | damage treatment and recovery | – |
| CC1(C)C(=O)C(C#N)=C[C@]2(C)C3=CC(=O)[C@@H]4[C@@H]5C[C@@](C)(C(=O)NCCc6c[nH]c7ccccc67)CC[C@]5(C)CC[C@@]4(C)[C@]3(C)CCC12 (some centres unmarked) [LX-2517, Soloxolone tryptamide] | damage treatment and recovery | – |
| C=C(C)[C@@H]1CC[C@]2(C)CC[C@]3(C)[C@H](CC[C@@H]4[C@@]5(C)CC[C@H](O)C(C)(C)[C@@H]5CC[C@]43C)[C@@H]12 [LX-5433, Lupeol] | damage treatment and recovery | viability at 1.1 µM (senescent A549 cells): 97.8%; viability at 10 µM (senescent A549 cells): 76.5%; viability at 30 µM (senescent A549 cells): 64.7%; viability at 90 µM (senescent A549 cells): 19.3%; viability at 1.1 µM (senescent cells): 108%; viability at 10 µM (senescent cells): 71.1%; viability at 30 µM (senescent cells): 51.8%; viability at 90 µM (senescent cells): 2.4% |
| CC(=O)N[C@@H](CS)C(=O)O [NAC, N-acetyl cysteine] | – | removal of senescent cells (senescent human cells): hardly removed |
